Measured values reported in the supplement of paper PMC10307832.

Columns and labels:
Assay in all cases: relative viability (nuclei count vs DMSO), 5 days (fraction); higher = more cells survive
[1] = test system: LXF-289
How it was run: (§1)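 Medians of duplicate plates are given as relative viability. That measure is the nuclei count in treated wells divided by the count in vehicle wells. Counts were taken on 4× images of lung cancer cell lines in 1536-well plates, 5 days after pin-tool dosing the day after seeding with one drug alone or a fixed anchor-drug dose plus five library-drug doses (not always all listed) in √10 steps.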

[2] = test system: ABC-1
How it was run: as §1

[3] = test system: NCI-H1993
How it was run: as §1

[4] = test system: HOP-62
How it was run: as §1

[5] = test system: NCI-H522
How it was run: as §1

[6] = test system: LK-2
How it was run: as §1

[7] = test system: NCI-H322M
How it was run: as §1

[8] = test system: NCI-H1944
How it was run: as §1

[9] = test system: EMC-BAC-2
How it was run: as §1

[10] = test system: SW 900
How it was run: as §1

[11] = test system: NCI-H2009
How it was run: as §1

[12] = test system: NCI-H2170
How it was run: as §1

[13] = test system: SW 1573
How it was run: as §1

[14] = test system: SK-MES-1
How it was run: as §1

[15] = test system: PC-3 [JPC-3]
How it was run: as §1

[16] = test system: HARA
How it was run: as §1

[17] = test system: A-427
How it was run: as §1

[18] = test system: NCI-H727
How it was run: as §1

[19] = test system: NCI-H3122
How it was run: as §1

[20] = test system: NCI-H596
How it was run: as §1

[21] = test system: NCI-H2228
How it was run: as §1

In the case of `Nc1ccn([C@@H]2O[C@H](CO)[C@@H](O)[C@@H]2O)c(=O)n1` [Cytarabine] + O=C(CCCCCCC(=O)Nc1ccccc1)NO [Vorinostat] (partner 1 µM), the relative viability ([1]; first compound 0.005 µM) is reported as 0.736, the relative viability ([1]; first compound 0.01581 µM) is reported as 0.856 and the relative viability ([1]; first compound 0.05 µM) is reported as 0.639. The relative viability ([1]; first compound 0.1581 µM) was 0.464, the relative viability ([1]; first compound 0.5 µM) was 0.27 and the relative viability ([2]; first compound 0.005 µM) was 0.934. It also gave a relative viability ([2]; first compound 0.01581 µM) of 0.995, a relative viability ([2]; first compound 0.05 µM) of 0.972 and a relative viability ([2]; first compound 0.1581 µM) of 0.933. For the same compound, the relative viability ([2]; first compound 0.5 µM) was 0.744, the relative viability ([3]; first compound 0.005 µM) was 0.865 and the relative viability ([3]; first compound 0.01581 µM) was 0.556. For the same compound, the relative viability ([3]; first compound 0.05 µM) was 0.751, the relative viability ([3]; first compound 0.1581 µM) was 0.503 and the relative viability ([3]; first compound 0.5 µM) was 0.602. The relative viability ([4]; first compound 0.005 µM) was 0.633, the relative viability ([4]; first compound 0.01581 µM) was 0.406 and the relative viability ([4]; first compound 0.05 µM) was 0.437. It also gave a relative viability ([4]; first compound 0.1581 µM) of 0.115, a relative viability ([4]; first compound 0.5 µM) of 0.0936 and a relative viability ([5]; first compound 0.005 µM) of 0.993. For the same compound, the relative viability ([5]; first compound 0.01581 µM) was 0.837, the relative viability ([5]; first compound 0.05 µM) was 0.694 and the relative viability ([5]; first compound 0.1581 µM) was 0.615. For the same compound, the relative viability ([5]; first compound 0.5 µM) was 0.563, the relative viability ([6]; first compound 0.005 µM) was 0.244 and the relative viability ([6]; first compound 0.01581 µM) was 0.29. For the same compound, the relative viability ([6]; first compound 0.05 µM) was 0.242, the relative viability ([6]; first compound 0.1581 µM) was 0.143 and the relative viability ([6]; first compound 0.5 µM) was 0.119. It also gave a relative viability ([7]; first compound 0.005 µM) of 0.804, a relative viability ([7]; first compound 0.01581 µM) of 0.785 and a relative viability ([7]; first compound 0.05 µM) of 0.641. The relative viability ([7]; first compound 0.1581 µM) was 0.589, the relative viability ([7]; first compound 0.5 µM) was 0.426 and the relative viability ([8]; first compound 0.005 µM) was 0.508. The relative viability ([8]; first compound 0.01581 µM) was 0.326, the relative viability ([8]; first compound 0.05 µM) was 0.309 and the relative viability ([8]; first compound 0.1581 µM) was 0.203. For the same compound, the relative viability ([8]; first compound 0.5 µM) was 0.159, the relative viability ([9]; first compound 0.005 µM) was 0.494 and the relative viability ([9]; first compound 0.01581 µM) was 0.448. For the same compound, the relative viability ([9]; first compound 0.05 µM) was 0.165, the relative viability ([9]; first compound 0.1581 µM) was 0.29 and the relative viability ([9]; first compound 0.5 µM) was 0.182. It also gave a relative viability ([10]; first compound 0.005 µM) of 0.399, a relative viability ([10]; first compound 0.01581 µM) of 0.491 and a relative viability ([10]; first compound 0.05 µM) of 0.376. The relative viability ([10]; first compound 0.1581 µM) was 0.182, the relative viability ([10]; first compound 0.5 µM) was 0.166 and the relative viability ([11]; first compound 0.005 µM) was 0.751. The relative viability ([11]; first compound 0.01581 µM) was 0.698, the relative viability ([11]; first compound 0.05 µM) was 0.71 and the relative viability ([11]; first compound 0.1581 µM) was 0.52. It also gave a relative viability ([11]; first compound 0.5 µM) of 0.198, a relative viability ([12]; first compound 0.005 µM) of 0.823 and a relative viability ([12]; first compound 0.01581 µM) of 0.65. It also gave a relative viability ([12]; first compound 0.05 µM) of 0.621, a relative viability ([12]; first compound 0.1581 µM) of 0.4 and a relative viability ([12]; first compound 0.5 µM) of 0.314. The relative viability ([13]; first compound 0.005 µM) was 0.606, the relative viability ([13]; first compound 0.01581 µM) was 0.552 and the relative viability ([13]; first compound 0.05 µM) was 0.677. The relative viability ([13]; first compound 0.1581 µM) was 0.225, the relative viability ([13]; first compound 0.5 µM) was 0.15 and the relative viability ([14]; first compound 0.005 µM) was 0.851. The relative viability ([14]; first compound 0.01581 µM) was 0.778, the relative viability ([14]; first compound 0.05 µM) was 0.6 and the relative viability ([14]; first compound 0.1581 µM) was 0.283. The relative viability ([14]; first compound 0.5 µM) was 0.233, the relative viability ([15]; first compound 0.005 µM) was 0.78 and the relative viability ([15]; first compound 0.01581 µM) was 0.775. For the same compound, the relative viability ([15]; first compound 0.05 µM) was 0.546, the relative viability ([15]; first compound 0.1581 µM) was 0.466 and the relative viability ([15]; first compound 0.5 µM) was 0.592. For the same compound, the relative viability ([16]; first compound 0.005 µM) was 0.694, the relative viability ([16]; first compound 0.01581 µM) was 0.44 and the relative viability ([16]; first compound 0.05 µM) was 0.52. The relative viability ([16]; first compound 0.1581 µM) was 0.458, the relative viability ([16]; first compound 0.5 µM) was 0.347 and the relative viability ([17]; first compound 0.005 µM) was 0.758. It also gave a relative viability ([17]; first compound 0.01581 µM) of 0.636, a relative viability ([17]; first compound 0.05 µM) of 0.325 and a relative viability ([17]; first compound 0.1581 µM) of 0.339. It also gave a relative viability ([17]; first compound 0.5 µM) of 0.306, a relative viability ([18]; first compound 0.005 µM) of 1.22 and a relative viability ([18]; first compound 0.01581 µM) of 1.16. The relative viability ([18]; first compound 0.05 µM) was 0.566, the relative viability ([18]; first compound 0.1581 µM) was 0.552 and the relative viability ([18]; first compound 0.5 µM) was 0.524. The relative viability ([19]; first compound 0.005 µM) was 0.938, the relative viability ([19]; first compound 0.01581 µM) was 0.914 and the relative viability ([19]; first compound 0.05 µM) was 0.894. It also gave a relative viability ([19]; first compound 0.1581 µM) of 0.695, a relative viability ([19]; first compound 0.5 µM) of 0.293 and a relative viability ([20]; first compound 0.005 µM) of 0.545. The relative viability ([20]; first compound 0.01581 µM) was 0.553, the relative viability ([20]; first compound 0.05 µM) was 0.502 and the relative viability ([20]; first compound 0.1581 µM) was 0.431. For the same compound, the relative viability ([20]; first compound 0.5 µM) was 0.272, the relative viability ([21]; first compound 0.005 µM) was 0.472 and the relative viability ([21]; first compound 0.01581 µM) was 0.275. For the same compound, the relative viability ([21]; first compound 0.05 µM) was 0.197, the relative viability ([21]; first compound 0.1581 µM) was 0.106 and the relative viability ([21]; first compound 0.5 µM) was 0.0947.
